Results published in US8592462B2, “Pirfenidone treatment for patients with atypical liver function” (Intermune, Inc., priority 2008, dated 2013).

Columns and labels:
[1] = one year treatment, chronic pulmonary fibrosis; cited from earlier work
[2] = IPF patients, compassionate use; cited from earlier work
[3] = Gamma-glutamyl transferase observed in patients receiving pirfenidone; type: in vivo; settings: some patients receiving pirfenidone
From the text: In some embodiments, the biomarker of liver function is alanine transaminase, aspartate transaminase, bilirubin, and/or alkaline phosphatase. […] In any of the embodiments described herein, biomarkers of liver function can exclude gamma-glutamyl transferase. In another embodiment, the abnormal level of alanine transaminase, aspartate transaminase, or alkaline phosphatase is greater than about 2.5-fold increased compared to the upper limit of normal (ULN). In a related embodiment, the abnormal level of alanine transaminase, aspartate transaminase, or alkaline phosphatase is greater than about 2.5- to about 5-fold increased compared to the upper limit of normal (ULN), i.e. a “liver function Grade 2 abnormality”. In some embodiments, the abnormal level of bilirubin is greater than about 1.5- to about 3-fold increased compared to the upper limit of normal (ULN), i.e., a “liver function Grade 2 abnormality”.

[4] = Study of 345 idiopathic pulmonary fibrosis patients on pirfenidone 2403 mg/day: liver function test (AST/ALT) abnormalities and response to dosing regimen; type: in vivo; design: key to Grade of AST or ALT abnormality after dose modification / Grade of ALT after dose modification / Grade of liver function test at resolution: 0: WNL; 1: >ULN-2.5 × ULN; >2.5-5 × ULN; 3: >5-20 × ULN; 4: >20 × ULN
Experimental: Patients begin pirfenidone treatment by receiving escalating doses of pirfenidone over a period of 15 days until the full maintenance dose is reached. Specifically, from days 1 to 7, patients are administered one capsule of 267 mg pirfenidone three times per day. During days 8 to 14, patients receive two capsules of 267 mg pirfenidone three times per day. From day 15 onward, patients are treated with three capsules of 267 mg pirfenidone three times per day. Pirfenidone is administered orally, and each dose should be taken with food. If the patient is unable to eat, then the pirfenidone dose should be taken with milk or juice (excluding grapefruit juice).
Once the full maintenance dose is reached, pirfenidone is administered orally to patients three times per day to provide a daily dose of 2403 mg pirfenidone. Each of the three doses of 801 mg pirfenidone includes three capsules of 267 mg pirfenidone each. The contents of the pirfenidone 267 mg capsules are pirfenidone (82.15%); croscarmellose sodium (8.15%); microcrystalline cellulose (7.39%); povidine, USP, EP (1.85%); and magnesium stearate (0.46%).
Patients are treated with pirfenidone for up to 72 weeks. Some patients are treated longer than 72 weeks. At weeks 2, 4, 6, 12, and every 12 weeks (±2 weeks) thereafter during the treatment period, with the exception of week 72 and the treatment completion visit, patients are examined and histories are collected as detailed in the steps below.
4. Clinical laboratory tests are performed, including hematology, serum chemistries, pregnancy tests for women of childbearing capacity, and urinalysis with microscopic examination.
Patients were treated with pirfenidone in accordance with Example 1. […] As described in Example 1, serum chemistry tests were performed at scheduled intervals during the treatment period to monitor various parameters, including biomarkers of liver function such as alanine transaminase (ALT), aspartate transaminase (AST), bilirubin, alkaline phosphate (ALP), and gamma-glutamyl transferase (GGT).
The patient continued to receive the full target dose of 2403 mg/day. While receiving the full target dose, the patient was monitored for AST, ALT, and bilirubin levels.
In one patient, study drug dose was reduced to 1602 mg/day for the remainder of study participation (from Day 51 to Day 602), and the Grade 1 AST or ALT abnormality returned to Grade 0. For the second patient, study drug dose was reduced to 1602 mg/day and then increased to 2403 mg/day for remainder of study participation, and ALT returned to Grade 0. The third patient had study drug dose reduced to 801 mg/day, ultimately completing study at 1602 mg/day, at which time ALT returned to Grade 0. The remaining patients (46 patients) received no dose modification.

Cc1ccc(=O)n(-c2ccccc2)c1 [pirfenidone, 5-methyl-1-phenyl-2-(1H)-pyridone]
liver dysfunctions, hematologic abnormalities, allergic or shock reactions during treatment [1]: no liver dysfunctions, hematologic abnormalities, or allergic or shock reactions
adverse events in hematology or blood chemistry [2]: No adverse events in hematology or blood chemistry
gamma-glutamyl transferase [3]: Elevated gamma-glutamyl transferase has been observed in some patients receiving pirfenidone, without clinical liver impairment
Grade of ALT after dose modification ([4]; Grade 1 patient, dose reduced to 801 mg/day, completing study at 1602 mg/day): 0
Grade of AST or ALT abnormality after dose modification ([4]; Grade 1 patient, dose reduced to 1602 mg/day for remainder of study (Day 51 to Day 602)): 0
Grade of ALT after dose modification ([4]; Grade 1 patient, dose reduced to 1602 mg/day, then increased to 2403 mg/day for remainder of study): 0
Grade of elevation at end of study ([4]; Grade 2 patient continued on 2403 mg/day, history of steatosis, Grade 1 before treatment, dose reduced for unrelated reasons (rash, diarrhea)): 1 (>ULN-2.5 × ULN)
Grade of AST elevation at the last documented assessment ([4]; Grade 2 patient, no dose modification, Grade 1 AST and ALT at baseline): 1 (>ULN-2.5 × ULN)
Grade of liver function test at resolution ([4]; Grade 2 patient, continued full daily dose of 2403 mg/day): 0
transaminase levels after re-escalation ([4]; Grade 2 patient, treatment temporarily discontinued for acute cerebral artery occlusion, escalated back to 2403 mg/day): returned to normal
Grade of abnormality at last documented values ([4]; Grade 3 patient with Grade 1 at screening and/or baseline, discontinued for lung transplant): 1 (>ULN-2.5 × ULN)
AST and ALT elevations at the last documented value ([4]; Grade 3 patient with Grade 1 at screening and/or baseline, study drug interrupted, then discontinued): normalized
patients developing a Grade 2 liver function test abnormality in AST and/or ALT levels ([4]; after pirfenidone 2403 mg/day): Fifteen
patients developing Grade 3 liver function abnormality in AST and/or ALT levels ([4]; after pirfenidone administration): Four
patients exhibiting a Grade 1 elevation in AST or ALT levels after pirfenidone administration ([4]; of 345 IPF patients, 2403 mg/day, patients without a baseline liver function abnormality): 49 patients
patients with Grade 1 liver function test elevation having a treatment emergent adverse event of increased AST or ALT ([4]; of the 49 Grade 1 patients): three
patients with Grade 2 abnormality with reported treatment emergent adverse events of increased AST or ALT or hepatitis ([4]; of the fifteen Grade 2 patients): 12 patients
patients who discontinued study drug for elevated liver function tests ([4]; of the four Grade 3 patients): Two
patients who discontinued treatment due to abnormal liver function tests in AST and/or ALT levels ([4]; of the twelve Grade 2 patients with adverse event, Grade 2 AST coincided with Grade 3 ALT): One
outcome of rechallenge with the full dose ([4]; one of the seven Grade 2 patients with permanent dose reduction, rechallenged at 2403 mg/day): recurrence of Grade 2 elevation in ALT levels
transaminases at study completion ([4]; seven Grade 2 patients with permanent dose reduction (3 at 801 mg/day, 4 at 1602 mg/day)): resolution of transaminases, except for one patient that had a Grade 1 elevation at study completion
liver enzymes at study completion ([4]; two Grade 2 patients, temporary dose reduction or discontinuation, rechallenged and escalated back to 2403 mg/day): normal liver enzymes
resolution of abnormalities after discontinuation ([4]; two Grade 3 patients who discontinued for elevated liver function tests, Grade 2 and Grade 3 last documented): had not resolved
